Data set [1] in a line: Ionophoric activity across large unilamellar vesicles containing 95:5 egg yolk phosphatidylcholine and phosphatidylglycerol assessed as apparent first order rate constant for H+ transport at 1% of total concentration of lipids at 25 degC measured after 20 mins by HPTS-based fluorescence assay (reference value: 2 x 10^-4/s). In kind it is ADME.
Data set [2] is described as follows: Ionophoric activity across large unilamellar vesicles containing 95:5 egg yolk phosphatidylcholine and phosphatidylglycerol assessed as apparent first order rate constant for Na+ transport at 1% of total concentration of lipids at 25 degC measured every 30 mins over 14 hrs by 23Na+ NMR analysis. In kind it is ADME.
The nature of data set [3]: Ionophoric activity across large unilamellar vesicles containing 95:5 egg yolk phosphatidylcholine and phosphatidylglycerol assessed as apparent first order rate constant for H+ transport at 1.5% of total concentration of lipids at 25 degC measured after 20 mins by HPTS-based fluorescence assay (reference value: 2 x 10^-4/s). In kind it is ADME.
Data set [4] can be described thus: Ionophoric activity across large unilamellar vesicles containing 95:5 egg yolk phosphatidylcholine and phosphatidylglycerol assessed as apparent first order rate constant for H+ transport at 2% of total concentration of lipids at 25 degC measured after 20 mins by HPTS-based fluorescence assay (reference value: 2 x 10^-4/s). In kind it is ADME.
The nature of data set [5]: Ionophoric activity across large unilamellar vesicles containing 95:5 egg yolk phosphatidylcholine and phosphatidylglycerol assessed as apparent first order rate constant for H+ transport at 2.5% of total concentration of lipids at 25 degC measured after 20 mins by HPTS-based fluorescence assay (reference value: 2 x 10^-4/s). In kind it is ADME.
Data set [6] can be described thus: Ionophoric activity across large unilamellar vesicles containing 95:5 egg yolk phosphatidylcholine and phosphatidylglycerol assessed as apparent first order rate constant for H+ transport at 3% of total concentration of lipids at 25 degC measured after 20 mins by HPTS-based fluorescence assay (reference value: 2 x 10^-4/s). In kind it is ADME.
The nature of data set [7]: Induction of lysis of large unilamellar vesicles containing 95:5 egg yolk phosphatidylcholine and phosphatidylglycerol assessed as calcein release at 0.22 mM treated at 400 to 1600 secs by fluorometric analysis. In kind it is functional.
A further data set has as its system Cryptococcus neoformans. The data set can be described thus: Antifungal activity against Cryptococcus neoformans clinical isolate after 48 hrs by broth microdilution method. In kind it is functional. (In general: In broth dilution the organism is exposed to a series of concentrations in liquid medium.)
The subject of another data set is Candida albicans. Put plainly: Antifungal activity against Candida albicans clinical isolate after 48 hrs by broth microdilution method. In kind it is functional.
The subject of data set [8] is Staphylococcus aureus. The data set can be described thus: Antibacterial activity against methicillin-resistant Staphylococcus aureus 16 clinical isolate after 24 hrs by broth microdilution method. The following applies: Staphylococcus aureus, 16, 24 h. In kind it is functional.
Data set [9] deals with Staphylococcus aureus. Put plainly: Antibacterial activity against Staphylococcus aureus 34 clinical isolate after 24 hrs by broth microdilution method. In kind it is functional. The conditions noted are these: Staphylococcus aureus, 34, 24 h.
Another data set relates to Pseudomonas aeruginosa. The data set can be described thus: Antibacterial activity against Pseudomonas aeruginosa ATCC 27853 after 24 hrs by broth microdilution method. In kind it is functional. The following applies: ATCC 27853, 24 h.
Data set [10] deals with Escherichia coli. The data set can be described thus: Antibacterial activity against Escherichia coli ATCC 25922 after 24 hrs by broth microdilution method. The conditions noted are these: ATCC 25922, 24 h. In kind it is functional.
Data set [11] deals with Escherichia coli. Put plainly: Induction of outer membrane permeabilization of Escherichia coli ML-35 pYC constitutively expressing cytoplasmic beta-galactosidase/periplasmic beta-lastamase assessed as CENTA hydrolysis at 64 uM by microplate reader analysis. In kind it is functional, organism-based.
Data set [12] relates to Escherichia coli. The data set can be described thus: Induction of inner membrane permeabilization of Escherichia coli ML-35 pYC constitutively expressing cytoplasmic beta-galactosidase/periplasmic beta-lastamase assessed as Gal-ONp hydrolysis at 64 uM by microplate reader analysis. In kind it is functional, organism-based.
Data set [13] is described as follows: Ionophoric activity across large unilamellar vesicles containing 95:5 egg yolk phosphatidylcholine and phosphatidylglycerol assessed as apparent first order rate constant for H+ transport at 0.5% of total concentration of lipids at 25 degC measured after 20 mins by HPTS-based fluorescence assay (reference value: 2 x 10^-4/s). In kind it is ADME.
The subject of data set [14] is Escherichia coli. The data set can be described thus: Induction of outer membrane permeabilization of Escherichia coli ML-35 pYC constitutively expressing cytoplasmic beta-galactosidase/periplasmic beta-lastamase assessed as CENTA hydrolysis at 256 uM by microplate reader analysis. In kind it is functional, organism-based.
The test system of data set [15] is Escherichia coli. The data set can be described thus: Induction of inner membrane permeabilization of Escherichia coli ML-35 pYC constitutively expressing cytoplasmic beta-galactosidase/periplasmic beta-lastamase assessed as Gal-ONp hydrolysis at 256 uM by microplate reader analysis. In kind it is functional, organism-based.
A short description of data set [16]: Ionophoric activity across large unilamellar vesicles containing 95:5 egg yolk phosphatidylcholine and phosphatidylglycerol assessed as apparent first order rate constant for Na+ transport at 0.2% of total concentration of lipids at 25 degC measured every 30 mins over 14 hrs by 23Na+ NMR analysis. In kind it is ADME.
A short description of data set [17]: Ionophoric activity across large unilamellar vesicles containing 95:5 egg yolk phosphatidylcholine and phosphatidylglycerol assessed as apparent first order rate constant for Na+ transport at 0.5% of total concentration of lipids at 25 degC measured every 30 mins over 14 hrs by 23Na+ NMR analysis. In kind it is ADME.
Data set [18] in a line: Ionophoric activity across large unilamellar vesicles containing 95:5 egg yolk phosphatidylcholine and phosphatidylglycerol assessed as apparent first order rate constant for Na+ transport at 1.5% of total concentration of lipids at 25 degC measured every 30 mins over 14 hrs by 23Na+ NMR analysis. In kind it is ADME.
A short description of data set [19]: Ionophoric activity across large unilamellar vesicles containing 95:5 egg yolk phosphatidylcholine and phosphatidylglycerol assessed as apparent first order rate constant for Na+ transport at 2% of total concentration of lipids at 25 degC measured every 30 mins over 14 hrs by 23Na+ NMR analysis. In kind it is ADME.
Data set [20] is described as follows: Ionophoric activity across large unilamellar vesicles containing 95:5 egg yolk phosphatidylcholine and phosphatidylglycerol assessed as apparent first order rate constant for Na+ transport at 3% of total concentration of lipids at 25 degC measured every 30 mins over 14 hrs by 23Na+ NMR analysis. In kind it is ADME.

Converted amounts (≈) assume the structure as drawn. The source made the active and inactive calls. The rule behind the calls is not given here. Starred links: 1 amine or outer side, 2 acyl side, 3 side chain; linkers in the order of their positions; H or OH if unused. Non-standard residues stand in square brackets, D forms with d. Residues, ends and D or L forms follow the SMILES beside them. *: point of attachment. HN(CH2CH2O)5CH2CH2NH = C(COCCOCCOCCOCCOCCN[*:2])N[*:1]; X1 = O=C(c1ccc(OP(=O)(O)O)cc1)*; Spermine = NCCCNCCCCNCCCN*; Aib = CC(C)(N)C(=O)O

With `C[C@@H]1[C@H](O)[C@@H](C)/C=C/C=C/C=C/C=C/C=C/C=C/C=C/[C@H](O[C@@H]2O[C@H](C)[C@@H](O)[C@H](N)[C@@H]2O)C[C@@H]2O[C@](O)(C[C@@H](O)C[C@@H](O)[C@H](O)CC[C@@H](O)C[C@@H](O)CC(=O)O[C@H]1C)C[C@H](O)[C@H]2C(=O)O` [AMPHOTERICIN B], the result in data set [1] and in data set [2] was Active.
Take `CC(C)(NC(=O)c1ccc(OP(=O)(O)O)cc1)C(=O)NC(C)(C)C(=O)NC(C)(C)C(=O)NC(C)(C)C(=O)NC(C)(C)C(=O)NC(C)(C)C(=O)NC(C)(C)C(=O)NC(C)(C)C(=O)NCCCNCCCCNCCCN` (X1-[Aib][Aib][Aib][Aib][Aib][Aib][Aib][Aib]-Spermine): the Kapp in data set [1] stood at 5.24 ×10⁻³ /s; in [3] it was 1.73 ×10⁻² /s; in data set [4] it was 1.98 ×10⁻² /s; in [5], 3.62 ×10⁻² /s; in [6], 6.77 ×10⁻² /s; in [13] it was 4.08 ×10⁻³ /s. In addition, in [7], the result was inactive. For the same molecule, the minimum inhibitory concentration (MIC) was 16 µM (≈ 17.3 µg/mL) against Cryptococcus neoformans; 32 µM (≈ 34.7 µg/mL) against Candida albicans; 32 µM (≈ 34.7 µg/mL) in the data set with Staphylococcus aureus [8]; 16 µM (≈ 17.3 µg/mL) against Staphylococcus aureus [9]; 64 µM (≈ 69.3 µg/mL) with Pseudomonas aeruginosa; 32 µM (≈ 34.7 µg/mL) in the data set on Escherichia coli [10]. Besides, the outcome in the data set with Escherichia coli [11] and in the data set on Escherichia coli [12] was Active. The Activity entry in [2] is “Not Active”.
As for `CC(C)(NC(=O)c1ccc(OP(=O)(O)O)cc1)C(=O)NC(C)(C)C(=O)NC(C)(C)C(=O)NC(C)(C)C(=O)NC(C)(C)C(=O)NC(C)(C)C(=O)NC(C)(C)C(=O)NC(C)(C)C(=O)NCCOCCOCCOCCOCCOCCN` (X1-[Aib][Aib][Aib][Aib][Aib][Aib][Aib][Aib]-{HN(CH2CH2O)5CH2CH2NH}), the Kapp in [1] was 7.71 ×10⁻³ /s; in data set [3], 1.78 ×10⁻² /s; in data set [4], 2.59 ×10⁻² /s; in data set [5] it was 4.89 ×10⁻² /s; in data set [16], 0.0017 min⁻¹; in [17], 0.0037 min⁻¹. In addition, the Kapp was 0.0063 min⁻¹ in data set [2]; 0.0078 min⁻¹ in data set [18]; 0.0102 min⁻¹ in [19]; 0.015 min⁻¹ in data set [20]; 4.96 ×10⁻³ /s in [13]. For the same molecule, the outcome (in data set [7]; in the data set on Escherichia coli [14]; with Escherichia coli [15]) was inactive. Also, the MIC against Cryptococcus neoformans, in the data set on Candida albicans, in the data set on Staphylococcus aureus [8], against Staphylococcus aureus [9], against Pseudomonas aeruginosa and against Escherichia coli [10] was more than 128 µM each time.
As for `CC(C)[C@@H](CC[C@@H](C)[C@H]1CC[C@H]2[C@@H]3[C@H](O)C[C@H]4C[C@@H](NCCCNCCCCN)CC[C@]4(C)[C@H]3CC[C@]12C)OS(=O)(=O)O` [SQUALAMINE], the MIC against Candida albicans amounted to 4 µM (≈ 2.51 µg/mL); with Staphylococcus aureus [9] it was 1 µM (≈ 0.628 µg/mL); against Pseudomonas aeruginosa, 4 µM (≈ 2.51 µg/mL); with Escherichia coli [10], 1 µM (≈ 0.628 µg/mL).

What is called MIC is the least concentration at which growth counts as inhibited. Lower therefore signals inhibition by little substance.

These data come from ChEMBL document CHEMBL3627603, “Helical peptide-polyamine and -polyether conjugates as synthetic ionophores” (Bioorg Med Chem, 2015).
